Reference: patent publication US20100022531A1, “NOVEL COMPOUNDS AS P2X7 MODULATORS AND USES THEREOF” (RENOVIS, INC., priority 2005, published 2010)

The compounds below were run against T1, P2X7 receptor (Homo sapiens, UniProt Q99572) (assay: Alternate method for IL-1β release assay (differentiated THP-1 cells, BzATP-stimulated, ELISA)). Details: P2X7, read-out: IL-1β % inhib @ 0.3 μM.
T1 construct: host or cells: THP-1 cells differentiated with LPS and IFN-γ
T1 sequence (Q99572 1-595): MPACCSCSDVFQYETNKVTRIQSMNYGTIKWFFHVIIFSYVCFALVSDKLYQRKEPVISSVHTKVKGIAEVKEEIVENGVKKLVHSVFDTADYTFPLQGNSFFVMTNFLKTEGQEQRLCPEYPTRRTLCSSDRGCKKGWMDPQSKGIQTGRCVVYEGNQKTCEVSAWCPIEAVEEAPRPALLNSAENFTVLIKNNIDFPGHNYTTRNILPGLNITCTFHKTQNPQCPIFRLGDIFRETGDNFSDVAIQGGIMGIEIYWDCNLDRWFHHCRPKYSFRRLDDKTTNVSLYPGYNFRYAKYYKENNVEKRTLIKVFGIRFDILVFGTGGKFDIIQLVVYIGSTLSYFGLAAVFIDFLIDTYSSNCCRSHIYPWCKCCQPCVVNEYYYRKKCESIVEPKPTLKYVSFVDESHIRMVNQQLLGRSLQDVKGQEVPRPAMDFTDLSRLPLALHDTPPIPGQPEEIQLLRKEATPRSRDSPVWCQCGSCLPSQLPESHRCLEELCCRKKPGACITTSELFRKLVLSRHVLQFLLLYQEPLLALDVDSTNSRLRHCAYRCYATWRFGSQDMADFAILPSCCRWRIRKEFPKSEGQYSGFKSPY
Assay type: cell-based
Description: Alternate Method for IL-1β Release Assay
THP-1 cells (ATCC Cat #285-IF-100) are plated in 96 well plates at a concentration of 200,000 cells per well and allowed to differentiate in RPMI-1640 media (ATCC Cat #30-2001) containing 10% FBS, 100 IU/mL penicillin, 100 ug/mL streptomycin, 100 ng/mL LPS and 100 ng/mL IFN-γ for 16 hours. Following differentiation, the cells are treated for an additional 2 hours in RPMI-1640 media containing 100 IU/mL penicillin, 100 ug/mL streptomycin and fresh LPS at 100 ng/mL. The cells are then pretreated for 30 minutes with the compound of interest at the appropriate concentration in RPMI media containing 100 IU/mL penicillin, 100 ug/mL streptomycin. Following the pretreatment 2′,3′-O-(4-benzoylbenzoyl)-adenosine 5′-triphosphate (Sigma Aldrich Cat# B6396) is added to a final concentration of 250 uM and the cells incubated for an additional 45 minutes. 30 uL of cell supernatant is then collected and IL-1β levels determined via ELISA (R&D systems Cat. # HSLB50) according to manufacturers recommendations using the Tecan Safire plate reader. Background adjusted IL-1β levels of drug treated and non-treated cells are used to calculate the percent inhibition.

SMILES	inhibition at 0.3 µM
O=S(=O)(c1ccccc1)N1CCc2c(ncnc2NCC23CC4CC(CC(C4)C2)C3)C1 [Compound 4, Adamantan-1-ylmethyl-(7-benzenesulfonyl-5,6,7,8-tetrahydro-pyrido[3,4-d]pyrimidin-4-yl)-amine]	50 to 75%

Same assay, conditions: P2X7; 0.1 μM compound (plus symbols); read-out: IL-1β % inhib @ 0.1 μM

inhibition at 0.1 µM	SMILES
> 75%	N#Cc1cccc(C(=O)N2CCc3c(ncnc3NCC34CC5CC(CC(C5)C3)C4)C2)c1 [Compound 97]
> 75%	O=C(c1ccno1)N1CCc2c(ncnc2NCC23CC4CC(CC(C4)C2)C3)C1 [Compound 149]
> 75%	O=C(c1ccc(F)cc1)N1CCc2c(ncnc2NCC23CC4CC(CC(C4)C2)C3)C1 [Compound 106]

Same assay, conditions: P2X7; 0.1 μM compound (symbols + to ++++); read-out: IL-1β % inhib @ 0.1 μM

inhibition at 0.1 µM	SMILES
0 to 25%	O=C(OCc1ccccc1F)N1CCc2c(ncnc2NCC23CC4CC(CC(C4)C2)C3)C1 [Compound 337]
0 to 25%	FC12CC3CC(C1)CC(CNc1ncnc4c1CCN(Cc1ccc5c(c1)OCCO5)C4)(C3)C2 [Compound 332]
25 to 50%	O=C(c1cccnc1)N1CCc2c(ncnc2NCC23CC4CC(CC(O)(C4)C2)C3)C1 [Compound 350, {4-[(3-Hydroxy-adamantan-1-ylmethyl)-amino]-5,8-dihydro-6H-pyrido[3,4-d]pyrimidin-7-yl}-pyridin-3-yl-methanone]
> 75%	O=C(OCc1c(F)cccc1F)N1CCc2c(ncnc2NCC23CC4CC(CC(C4)C2)C3)C1 [Compound 338]
25 to 50%	Cc1nn(-c2ccccc2)nc1COC(=O)N1CCc2c(ncnc2NCC23CC4CC(CC(C4)C2)C3)C1 [Compound 345]
> 75%	O=C(OCc1ccco1)N1CCc2c(ncnc2NCC23CC4CC(CC(C4)C2)C3)C1 [Compound 336]

Same assay, conditions: P2X7; 0.3 μM compound (asterisk symbols); read-out: IL-1β % inhib @ 0.3 μM

inhibition at 0.3 µM	SMILES
50 to 75%	Cc1noc(C)c1S(=O)(=O)N1CCc2c(ncnc2NCC23CC4CC(CC(C4)C2)C3)C1 [Compound 26]
0 to 25%	CC(CN1CCc2c(ncnc2NCC23CC4CC(CC(C4)C2)C3)C1)c1ccccc1 (centres unmarked) [Compound 165]
> 75%	O=C(c1c(F)cccc1Cl)N1CCc2c(ncnc2NCC23CC4CC(CC(C4)C2)C3)C1 [Compound 127]
> 75%	CC1(C)C2CC=C(CN3CCc4c(ncnc4NCC45CC6CC(CC(C6)C4)C5)C3)C1C2 (centres unmarked) [Compound 184]
25 to 50%	O=S(=O)(Cc1ccc(Cl)cc1)N1CCc2c(ncnc2NCC23CC4CC(CC(C4)C2)C3)C1 [Compound 45]
0 to 25%	Cc1ccc(F)cc1S(=O)(=O)N1CCc2c(ncnc2NCC23CC4CC(CC(C4)C2)C3)C1 [Compound 69]
> 75%	O=C(C1COc2ccccc2C1)N1CCc2c(ncnc2NCC23CC4CC(CC(C4)C2)C3)C1 (centres unmarked) [Compound 160]
> 75%	O=S(=O)(c1c(Cl)cccc1Cl)N1CCc2c(ncnc2NCC23CC4CC(CC(C4)C2)C3)C1 [Compound 67]
50 to 75%	O=S(=O)(c1ccc2c(c1)OCCO2)N1CCc2c(ncnc2NCC23CC4CC(CC(C4)C2)C3)C1 [Compound 57]
> 75%	O=C(COCc1ccccc1)N1CCc2c(ncnc2NCC23CC4CC(CC(C4)C2)C3)C1 [Compound 111]
> 75%	N#Cc1cccc(CN2CCc3c(ncnc3NCC34CC5CC(CC(C5)C3)C4)C2)c1 [Compound 182]
0 to 25%	O=S(=O)(c1ccc(Cl)cc1)N1CCc2c(ncnc2NCC23CC4CC(CC(C4)C2)C3)C1 [Compound 11]
25 to 50%	O=S(=O)(c1ccc(Oc2ccncc2)cc1)N1CCc2c(ncnc2NCC23CC4CC(CC(C4)C2)C3)C1 [Compound 31]
0 to 25%	O=C(c1ccc(OC(F)(F)F)cc1)N1CCc2c(ncnc2NCC23CC4CC(CC(C4)C2)C3)C1 [Compound 84]

The remaining lines, values behind:

SMILES	inhibition at 0.3 µM
O=S(=O)(c1ccc(C(F)(F)F)cc1)N1CCc2c(ncnc2NCC23CC4CC(CC(C4)C2)C3)C1 [Compound 58]	0 to 25%
Cc1ccc(C(=O)N2CCc3c(ncnc3NCC34CC5CC(CC(C5)C3)C4)C2)cc1 [Compound 144]	50 to 75%
COc1ccc(Oc2ccc(S(=O)(=O)N3CCc4c(ncnc4NCC45CC6CC(CC(C6)C4)C5)C3)cc2)cc1 [Compound 32]	0 to 25%
COc1ccc(C(=O)N2CCc3c(ncnc3NCC34CC5CC(CC(C5)C3)C4)C2)cc1F [Compound 158]	> 75%
c1ccc(CCCN2CCc3c(ncnc3NCC34CC5CC(CC(C5)C3)C4)C2)cc1 [Compound 170]	0 to 25%
O=C(c1c(F)cccc1F)N1CCc2c(ncnc2NCC23CC4CC(CC(C4)C2)C3)C1 [Compound 102]	50 to 75%
CC(C)S(=O)(=O)N1CCc2c(ncnc2NCC23CC4CC(CC(C4)C2)C3)C1 [Compound 70]	50 to 75%
O=S(=O)(c1ccc(F)cc1Cl)N1CCc2c(ncnc2NCC23CC4CC(CC(C4)C2)C3)C1 [Compound 68]	0 to 25%
c1ccc2cc(CN3CCc4c(ncnc4NCC45CC6CC(CC(C6)C4)C5)C3)ccc2c1 [Compound 176]	0 to 25%
O=C(c1ccc(C(F)(F)F)cc1)N1CCc2c(ncnc2NCC23CC4CC(CC(C4)C2)C3)C1 [Compound 98]	25 to 50%
Cc1cc(C(=O)N2CCc3c(ncnc3NCC34CC5CC(CC(C5)C3)C4)C2)n(C(C)(C)C)n1 [Compound 151]	25 to 50%
COc1ccc(CC(=O)N2CCc3c(ncnc3NCC34CC5CC(CC(C5)C3)C4)C2)cc1 [Compound 80]	> 75%
O=C(c1cc(F)cc(C(F)(F)F)c1)N1CCc2c(ncnc2NCC23CC4CC(CC(C4)C2)C3)C1 [Compound 122]	0 to 25%
COc1ccc(C)cc1S(=O)(=O)N1CCc2c(ncnc2NCC23CC4CC(CC(C4)C2)C3)C1 [Compound 71]	25 to 50%

Same assay, conditions: P2X7; 0.3 μM compound (symbols * to ****); read-out: IL-1β % inhib @ 0.3 μM

inhibition at 0.3 µM	SMILES
0 to 25%	O=C(CN1CCC1)N1CCc2c(ncnc2NCC2C3CC4CC(C3)CC2C4)C1 (centres unmarked) [Compound 283]
0 to 25%	COc1cc(F)c(CN2CCc3c(ncnc3NCC34CC5CC(CC(C5)C3)C4)C2)cc1OC [Compound 234]
0 to 25%	Fc1ccc(COc2ccc(CN3CCc4c(ncnc4NCC45CC6CC(CC(C6)C4)C5)C3)cc2)cc1 [Compound 233]
25 to 50%	O=C(CN1CCN(c2ncncn2)CC1)N1CCc2c(ncnc2NCC2C3CC4CC(C3)CC2C4)C1 (centres unmarked) [Compound 302]
0 to 25%	COc1ccc(CN2CCc3c(ncnc3NCC34CC5CC(CC(C5)C3)C4)C2)c(OC)c1 [Compound 219]
0 to 25%	Clc1ccc(CN2CCc3c(ncnc3NCC34CC5CC(CC(C5)C3)C4)C2)cc1Cl [Compound 201]
25 to 50%	O=C(CN1CCN(CCn2cccc2)CC1)N1CCc2c(ncnc2NCC2C3CC4CC(C3)CC2C4)C1 (centres unmarked) [Compound 303]
> 75%	COc1cc(CN2CCc3c(ncnc3NCC34CC5CC(CC(C5)C3)C4)C2)cc(OC)c1 [Compound 244]

The remaining lines, values behind:

SMILES	inhibition at 0.3 µM
CN(C)CCN1CCN(CC(=O)N2CCc3c(ncnc3NCC34CC5CC(CC(C5)C3)C4)C2)CC1 [Compound 258]	0 to 25%
Cc1ccc(CN(C)CC(=O)N2CCc3c(ncnc3NCC3C4CC5CC(C4)CC3C5)C2)cc1 (centres unmarked) [Compound 318]	25 to 50%
COc1cc(F)c(CN2CCc3c(ncnc3NCC34CC5CC(CC(C5)C3)C4)C2)c(F)c1 [Compound 235]	0 to 25%
c1nc2c(c(NCC34CC5CC(CC(C5)C3)C4)n1)CCN(CC1CCCC1)C2 [Compound 230]	> 75%
N#Cc1cc(CN2CCc3c(ncnc3NCC34CC5CC(CC(C5)C3)C4)C2)ccc1F [Compound 206]	> 75%
CC(C)N1CCN(CC(=O)N2CCc3c(ncnc3NCC3C4CC5CC(C4)CC3C5)C2)CC1 (centres unmarked) [Compound 285]	0 to 25%

Same assay, conditions: P2X7; at 0.03 μM (asterisk symbols); read-out: IL-1β % inhib @ 0.3 μM or @ 0.03 μM

inhibition at 0.03 µM	SMILES
0 to 25%	CC(C)(C)OC(=O)N[C@H](Cc1ccccc1)C(=O)N1CCc2c(ncnc2NCC(O)C23CC4CC(CC(C4)C2)C3)C1 (stereo partly drawn) [Compound 711, {(R)-2-[4-(2-Adamantan-1-yl-2-hydroxy-ethylamino)-5,8-dihydro-6H-pyrido[3,4-d]pyrimidin-7-yl]-1-benzyl-2-oxo-ethyl}-carbamic acid tert-butyl ester]
